From US20260102492A1, “Inhibition of Natural Killer Cell Cytoxocity” (University of Cincinnati, priority 2022, published 2026)
“Also recorded” adds a separate entry of the source.

Legend:
[1] = test system: pSTAT3; assay: Western blot of HNSCC NK cell lysates, pSTAT3; type: cell-based, Human; details: metformin or 50 ng CXCL1, 24 hrs; western blot, FIG. 3A/3B
Procedure: (§1) NK92, Cal27, UMSCC47 and HN5 cells were cultured with drug as described. Cells were collected in RIPA (0.05% sodium deoxycholate, […], 0.1% SDS, 1% NP-40) and protein content was analyzed by Pierce BCA kit (Thermo 23225). 50 ug of protein was diluted in 1×loading buffer (SDS, bromophenol blue, 47% glycerol, Tris 0.5M pH 6.8, 0.2 mM DTT-G) and heated to 90° C. for 3 minutes. Prepared lysate was loaded into gradient gels (Biorad 4561093) and run at 85V for 1.5 hour in Biorad casing with a Biorad powerpack in 1×running buffer (Tris, Glycine, SDS). Gels were transferred on nitrocellulose and run at 100V on bench for 1 hour in 1×transfer buffer (Tris, Glycine). Membranes were blocked in 5% BSA in TBS for 1 hr, washed, and incubated in primary diluted in 2% BSA in TBS overnight. Membranes were washed and incubated in Licor secondary (Licor 926-32211 and 925-68070) in 5% BSA in TBS for 1 hr. Membranes were washed and imaged on a Licor Odyssey Clx. Images were analyzed in Image Studio Lite V 5.2.
(§2) To determine what those pathways could be, pathways known to be affected by both metformin and CXCL1 were investigated. pSTAT3 and mTOR are known to be increased by activation of the CXCR2 receptor, and mTOR activation can inhibit pSTAT1 expression. Metformin is also hypothesized to inhibit pSTAT3 and mTOR in NK cells. Therefore, HNSCC patient-derived NK cells treated with metformin, CXCL1, or CXCR2i (navaxarin) were collected and analyzed by western blot analysis. Head and neck squamous cell carcinoma (HNSCC) natural killer (NK) cells were treated with metformin, 50 ng CXCL1, or 10 uM CXCR2i (navarixin) for 24 hrs and collected for lysates analyzed by western blot analysis (FIG. 3A).

[2] = Peripheral blood cell populations and serum cytokines of HNSCC patients after metformin treatment; type: in vivo, Human
Procedure: An Unpaired 2-tailed T Test With Welch's correction was used for analysis between flow cytometry in controls versus HNSCC patients. A 2-tailed Student's t test was used to compare differences between HNSCC patients before and after treatment in flow cytometry and cytokine experiments. Differences in immune cell populations between three groups were compared by one-way ANOVA with specific post-hoc contrasts. NKCA data were compared using a paired t test. Statistical analysis was performed in GraphPad Prism (V10). Differences between groups were considered statistically significant when P<0.05.

[3] = test system: CXCL1; assay: Patient plasma CXCL1 ELISA, trial NCT04414540 (pembrolizumab and metformin); type: in vivo, Human
[4] = test system: HNSCC patient-derived NK cells; assay: NK cell perforin ELISA after co-culture with Cal27 cells; type: cell-based, Human
Procedure: For NK cell perforin assays, NK cells were treated with drug for 24 hrs, washed, and co-cultured with Cal27 cells for 4 hours. Supernatant was then collected, snap frozen in liquid nitrogen and stored at −80 until thawed for single use. For patient samples, undiluted plasma was added directly to ELISA. ELISA kit for perforin was obtained from ABCAM. ELISA was performed according to the manufacturer's protocol. Protocols included overnight coating of capture antibody diluted by lot number recommendation, 1 hr block with 400 uL 2% BSA in PBS, 2 hr sample incubation at room temperature of 100 uL sample (no dilution of sample was performed in these experiments), 2 hr […] diluted by lot number recommendation, 20 min Streptavidin incubation with 100 uL of 1:40 dilution of stock, and 15 min incubation with 100 uL included TMB ELISA reagent. 50 uL stop solution of in house 2N […] was added to stop reaction before reading at […] wavelength on plate reader. All plates included standard curve prepared per lot number recommendation with range of 35-2000 pg.
HNSCC patient-derived NK cells were treated with exogenous CXCL1 and an inhibitor of the CXCL1 receptor, CXCR2, or metformin. Patient-derived NK cells were exposed to Cal27 cells for 4 hours and supernatant was collected for perforin analysis by ELISA. Specifically, HNSCC NK cells derived from PBMCs were treated with 50 ng CXCL1, 12 mM metformin, or 10 nM CXCR2i (navarixin) and subjected to perforin against Cal27 target cells. Cells were analyzed by flow and analyzed by one way ANOVA. n=8.
Specifically, HNSCC NK cells were treated with vehicle, metformin, or 10 uM AMPK inhibitor (Dosomorphin) for 24 hrs, washed, and co-cultured with Cal27 cells for 4 hrs. Supernatant was collected for ELISA and analyzed by one way ANOVA. n=5.
HNSCC patient-derived NK cells were treated with vehicle, metformin, 10 uM mTOR inhibitor (Everolimus), or 10 uM mTOR activator (MHY1485) for 24 hrs, washed, and co-cultured with Cal27 cells for 4 hrs. Supernatant was collected for ELISA and analyzed by one way ANOVA. n=5.
As pSTAT1 can modulate perforin production, HNSCC patient-derived NK cells were treated with vehicle, […], or 10 uM of pSTAT1i inhibitor Fludarabine for 24 hrs, washed, and co-cultured with Cal27 cells for 4 hrs.
HNSCC NK cells were treated with vehicle, 12 mM metformin, 50 ng CXCL1, or 10 uM pSTAT3 inhibitor BP-1012 and co-cultured with Cal27 cells for 4 hrs. Supernatant was collected for ELISA and analyzed by one way ANOVA. n=5.

[5] = test system: HNC NK cells; assay: RNA-seq of metformin treated HNSCC patient-derived NK cells; type: cell-based, Human; details: 12 mM metformin 24 hrs
Procedure: HNC NK cells were isolated as above and were treated with vehicle or 12 mM metformin for 24 hrs. Cells were washed, suspended in CyroStor, and frozen. Samples were sent to Genewiz/Azenta for standard RNA-seq profiling. Sequence reads were aligned to the current reference […] genome (GRCh38) using the STAR aligner (43,44) and the reads aligned to each known gene were counted based on the latest GENCODE definitions of gene features.

[6] = test system: HNSCC patient-derived NK cells; assay: CXCL1 ELISA of NK cell culture supernatant; type: cell-based, Human
Procedure: Healthy donor and HNSCC NK cells were isolated from PBMCs and were treated for 24 hrs with vehicle or metformin. Supernatant was collected and analyzed by ELISA (analyzed by one way ANOVA. n=10).
HNSCC NK cells were isolated from PBMCs and treated with vehicle, 12 mM metformin, 50 ng CXCL1, 10 uM everolimus, or 10 uM BP-1-102 for 24 hr. The cells were washed and plated in fresh media. After 24 hrs, supernatant was collected for ELISA.

[7] = test system: pSTAT1; assay: Western blot of HNSCC NK cell lysates, pSTAT1; type: cell-based, Human; details: metformin or 50 ng CXCL1, 24 hrs, FIG. 3A/3B
Procedure: as §1, with “Membranes were blocked in 5% BSA in TBS for 1 hr, washed, and incubated in primary diluted in 2% BSA in TBS overnight. Membranes were washed and incubated in Licor secondary (Licor 926-32211 and 925-68070) in 5% BSA in TBS for 1 hr. Membranes were washed and imaged on a Licor Odyssey Clx.” left out
as §2, with “Metformin is also hypothesized to inhibit pSTAT3 and mTOR in NK cells.” left out

[8] = patient serum cytokine profile, after metformin
[9] = patients, after metformin treatment

In the case of `CN(C)C(=N)N=C(N)N` [metformin, Metformin], the pSTAT3 [1] is reported as “decreases pSTAT3; also recorded: reduction of pSTAT3”, the “expression of NKG2D” value ([2]; circulating NK and NKT cells, after metformin treatment) is reported as “increasing expression of NKG2D back to levels seen in healthy controls” and the IL-2 [2, 8] is reported as “increasing”. For the same compound, the TNF-α [2, 8] was “increasing”, the TEM cells [2, 9] was “larger population” and the “circulating NK and NKT cell populations” value [2, 9] was “partially restored”. For the same compound, the “circulating CXCL1” value ([3]; post-metformin and pembrolizumab combination (week 4), n=5) was “decrease was not retained”, the “circulating CXCL1” value ([3]; post-metformin only vs pre-treatment, n=5, FIG. 9) was “decreased” and the “circulating CXCL1” value ([3]; post-metformin only vs pre-treatment, n=5, FIG. 9, listed as Metformin) was “reduced circulating CXCL1”. The perforin ([4]; 12 mM Metformin in pSTAT1-inhibited (10 uM Fludarabine) NK cells, Cal27 co-culture 4 hrs, FIG. 6) was “rescued to baseline”, the perforin production ([4]; 12 mM metformin or 50 ng CXCL1, Cal27 target cells 4 hours, n=8, FIG. 2) was “increased perforin” and the “CXCL1 expression (RNA-seq)” value [5] was “significantly downregulated CXCL1”. For the same compound, the CXCL1 supernatant levels ([6]; HNSCC patient-derived NK cells treated 24 hrs, n=10, FIG. 1) was “inhibits CXCL1 release; also recorded: significantly reduced CXCL1 supernatant levels”, the CXCL1 secretion ([6]; single agent (12 mM metformin, 10 uM everolimus or 10 uM BP-1-102) 24 hr, fresh media 24 hrs, n=5, FIG. 8) was “reduces CXCL1” and the pSTAT1 [7] was “increases pSTAT1; also recorded: increase in pSTAT1”.
